Test results taken from the supplement of paper PMC10702517.
± gives the standard deviation.

Tests used:
[1] = chemical recovery from spiked human plasma; higher = better extraction; conditions: pooled human plasma
[2] = chemical recovery into PDMS from spiked human plasma; higher = better extraction; conditions: pooled human plasma, extraction method: PES with PDMS
[3] = chemical recovery by SPE of plasma after PDMS sampling; higher = better extraction; conditions: pooled human plasma, extraction method: HLB SPE of plasma after PES
[4] = extraction method: PES+SPE (3 d PDMS equilibration then HLB SPE)
[5] = extraction method: SPE only (HLB 96-well)
[6] = extraction method: SPE only (HLB 96-well), PES comparison experiment
[7] = extraction method: solvent precipitation (ACN + hexane)
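For chemical recovery by SPE of plasma after PDMS sampling in this document: over 400 spiked chemicals quantified by LC-HRMS or GC-HRMS via internal standard calibration, recovery relative to spike mix added to unspiked plasma extract to correct matrix effects.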

Row | SMILES | chemical recovery [1, 4] [%] | chemical recovery [1, 5] [%] | chemical recovery [1, 6] [%] | chemical recovery into PDMS ([2]; equilibration time (d): 1) [%] | chemical recovery into PDMS ([2]; equilibration time (d): 3) [%] | chemical recovery into PDMS ([2]; equilibration time (d): 6) [%] | chemical recovery by SPE of plasma ([3]; equilibration time (d): 1) [%] | chemical recovery by SPE of plasma ([3]; equilibration time (d): 3) [%] | chemical recovery by SPE of plasma ([3]; equilibration time (d): 6) [%] | chemical recovery [1, 7] [%]
1 | CC(=O)N1CCN(c2ccc(OC[C@H]3CO[C@](Cn4ccnc4)(c4ccc(Cl)cc4Cl)O3)cc2)CC1 (racemic) [Ketoconazole] | 7.76 ± 0.64 | 42.6 ± 2.9 | 39.6 ± 10 | 0.0493 ± 0.043 | 0.0293 ± 0.027 | 0.0825 ± 0.0051 | 17.2 ± 0.9 | 12.8 ± 1.7 | 10.5 ± 1.8 | –
2 | c1ccc2c(c1)Cc1cc3ccccc3cc1-2 [Benzo(b)fluorene] | 57.9 ± 6.2 | 1.4 ± 0.48 | 17.5 ± 3.4 | – | 107 ± 3.9 | 110 ± 13 | 1.71 ± 1.6 | 2.82 ± 0.45 | 2.41 ± 0.48 | 69.1 ± 5.1
3 | CCc1cccc(C)c1N(C(=O)CCl)C(C)COC (stereo not given) [Metolachlor] | 37.9 ± 5.3 | 38.1 ± 1.9 | 47.6 ± 6.7 | 37.3 ± 1.4 | 40.7 ± 3.2 | 40.6 ± 1.1 | 0.504 ± 0.043 | 0.63 ± 0.12 | 0.323 ± 0.0041 | –
4 | NC(=O)/N=C1\SCCN1Cc1ccc(Cl)nc1 [Thiacloprid amide] | 42.5 ± 3.4 | 33.6 ± 3.3 | 51.2 ± 7 | 2.46 ± 0.75 | 4 ± 1.4 | 4.83 ± 0.88 | 51.1 ± 5.3 | 53.4 ± 4.1 | 47 ± 2.8 | 78 ± 3.3
5 | O=C1CCCC=CCCCCCCCCCC1 [Velvione] | – | 0.134 ± 0.12 | – | 41.7 ± 2.9 | 43.1 ± 12 | 40.2 ± 13 | 1.02 ± 7.1 | – | – | –
6 | O=P1(NCCCl)OCCCN1CCCl (stereo not given) [Ifosfamide] | 46.6 ± 3.5 | 39.4 ± 3.3 | 55.9 ± 6.7 | 3.64 ± 0.32 | 6.16 ± 1.5 | 6.9 ± 1.5 | 54.9 ± 6.7 | 56.1 ± 4.8 | 47.3 ± 4.7 | 71.7 ± 1.5
7 | CCOP(=S)(OCC)Oc1cc(C)nc(C(C)C)n1 [Diazinon] | – | – | 38 ± 6.1 | 31.2 ± 2.3 | 34 ± 2.4 | 34 ± 0.57 | 0.161 ± 0.14 | 0.223 ± 0.071 | 0.073 ± 0.064 | 62.9 ± 4.1
8 | Brc1ccc(Oc2c(Br)cc(Br)cc2Br)c(Br)c1 [BDE100] | 67.4 ± 0.92 | 3.57 ± 1.4 | – | – | 99.1 ± 13 | 95.9 ± 6 | 2.2 ± 2 | 1.42 ± 0.25 | 0.324 ± 0.56 | 7.72 ± 0.68
9 | CS(=O)(=O)c1ccccc1 [Methylphenylsulfone] | – | 19.9 ± 3.2 | – | 94.1 ± 26 | 98.5 ± 33 | 100 ± 28 | – | 104 ± 9.2 | – | 68 ± 24
10 | Cc1ccc(NC(=O)N(C)C)cc1Cl [Chlorotoluron] | 61.6 ± 12 | 46 ± 3.5 | 50.6 ± 6.2 | 32 ± 1.2 | 34.9 ± 1.4 | 36.3 ± 0.76 | 10.3 ± 0.88 | 9.6 ± 1.2 | 5.83 ± 0.28 | 74.4 ± 2.2
11 | CCCCCCCCn1sccc1=O [2-Octyl-4-isothiazolin-3-one] | – | 29.4 ± 2.2 | 21.6 ± 2.9 | 33.3 ± 1.9 | 35.5 ± 1.5 | 36.3 ± 1.2 | 1.24 ± 0.64 | 1.03 ± 0.27 | 0.459 ± 0.03 | 40.8 ± 4.6
12 | CCCN(CCOc1c(Cl)cc(Cl)cc1Cl)C(=O)NC=O | – | – | 43.4 ± 6.2 | 39.6 ± 3.2 | 42.2 ± 4.2 | 43.2 ± 2.2 | 3.65 ± 3.2 | 2.44 ± 2.1 | 0.703 ± 1.2 | –
13 | Oc1ccc(Cl)cc1Cc1cc(Cl)ccc1O [Dichlorophen] | 78.9 ± 10 | – | 50.4 ± 7.8 | 0.919 ± 0.12 | 1.88 ± 0.2 | 2.38 ± 0.74 | 53.2 ± 21 | – | – | 45.7 ± 2.1
14 | c1ccc2[nH]nnc2c1 [1H-Benzotriazole] | 51.7 ± 3.9 | 48.2 ± 2.7 | 53.9 ± 5.8 | 4.24 ± 0.36 | 6.44 ± 1 | 7.25 ± 1.5 | 47.4 ± 3.6 | 46.6 ± 3.2 | 39.9 ± 2.1 | 62.5 ± 4.5
15 | CCc1cccc(C)c1N(C(=O)C(=O)O)C(C)COC (stereo not given) [Metolachlor OA] | 40.1 ± 4.2 | 35.7 ± 1.4 | 54.1 ± 5.2 | 19 ± 0.56 | 21.5 ± 1.7 | 21 ± 0.44 | 32.4 ± 6.7 | – | 30.3 ± 2.7 | 73.7 ± 3.3
16 | CO/C=C(/C(=O)OC)c1ccccc1Oc1cc(Oc2ccccc2C#N)ncn1 [Azoxystrobin] | 46.6 ± 5.9 | 46.7 ± 1.1 | 51.9 ± 7.1 | 40.1 ± 1.9 | 43.9 ± 3.2 | 43 ± 0.52 | 5.12 ± 0.84 | 3.88 ± 0.44 | 2.15 ± 0.22 | 75.6 ± 3.4
17 | Nc1nc(N)nc(NC2CC2)n1 [Cyromazine] | 3.13 ± 0.61 | 2.36 ± 2.5 | – | – | – | 1.4 ± 0.44 | – | – | 5.59 ± 4.5 | 72.9 ± 2.3
18 | Cc1c(C(C)C)c(=O)n(-c2ccccc2)n1C [Propyphenazone] | 48.4 ± 9.9 | 44.6 ± 2.6 | 47.3 ± 6.5 | 17.3 ± 1.9 | 22 ± 0.25 | 23 ± 2.1 | 4.36 ± 0.18 | 3.89 ± 0.79 | 2.01 ± 0.19 | 69.31 ± 0.67
19 | CC1(C)CC(N)CC(C)(CN)C1 (stereo not given) [Isophorone diamine] | – | – | 4.27 ± 3.6 | 0.00705 ± 0.025 | 0.0508 ± 0.069 | – | – | – | 1.22 ± 0.75 | –
20 | Brc1ccc(Oc2cc(Br)c(Br)cc2Br)c(Br)c1 [BDE99] | 53.9 ± 4.6 | 1.63 ± 0.65 | – | – | 99.1 ± 13 | 92.4 ± 7.2 | 1.13 ± 1.1 | – | – | 4.89 ± 0.2
21 | C[C@]12CCC(=O)C=C1[C@@H]1C[C@@H]1[C@H]1[C@@H]3[C@@H]4C[C@@H]4[C@@]4(CCC(=O)O4)[C@@]3(C)CC[C@@H]12 [Drospirenone] | – | – | 42.6 ± 8.3 | 41.9 ± 2.5 | 45.7 ± 3 | 44.9 ± 1.4 | 3.88 ± 0.83 | 2.16 ± 0.41 | 1.04 ± 0.16 | –
22 | CCOC(=O)C(C)(C)Oc1ccc(Cl)cc1 [Clofibrate] | – | 3.33 ± 1.6 | 44.4 ± 7.8 | 40.3 ± 0.95 | 42.9 ± 4.2 | 43 ± 5.5 | – | 0.676 ± 1.2 | – | 23 ± 10
23 | Clc1ccc2c(c1)CCc1cccnc1C2=C1CCNCC1 [Desloratadine] | 2.22 ± 0.35 | 30.1 ± 1.7 | – | 0.203 ± 0.15 | 0.0639 ± 0.025 | 0.452 ± 0.57 | 3.67 ± 0.83 | 4.32 ± 0.44 | 2.93 ± 0.67 | 59.9 ± 1.8
24 | CC(C)C(=O)Nc1ccc([N+](=O)[O-])c(C(F)(F)F)c1 [Flutamide] | – | – | 67.8 ± 5.2 | 32.4 ± 1.4 | 36.2 ± 3.1 | 36.7 ± 1.6 | 21.7 ± 2.7 | 22.2 ± 0.83 | 15.5 ± 1.1 | –
25 | COC(=O)[C@H](c1ccccc1Cl)N1CCc2sccc2C1 [Clopidogrel] | – | – | 39.3 ± 7.1 | 26.7 ± 8.6 | 25.5 ± 7.8 | 28.3 ± 5.4 | 0.677 ± 0.17 | 1.02 ± 0.078 | 0.597 ± 0.026 | 78.1 ± 6.1
26 | CN1C(=O)CC[C@H]1c1cccnc1 [Cotinine] | 23.3 ± 6.5 | 6.77 ± 2.8 | – | 6.6 ± 0.43 | 10.6 ± 2.5 | 11.6 ± 1.5 | 6.83 ± 6.3 | 2.33 ± 0.49 | 4.13 ± 1.4 | 80.5 ± 3.5
27 | Clc1ccc(-c2cc(Cl)c(Cl)cc2Cl)cc1Cl [PCB118] | – | 0.333 ± 0.1 | 3.8 ± 7.6 | 74.9 ± 4.3 | – | – | 2.43 ± 1.6 | 1.87 ± 0.24 | 1.71 ± 0.54 | 32 ± 1.2
